This note sets out measurements from US20240009214A1 (priority 2020, published 2024).

Where a name gives a salt, the structure may show the parent alone.

Series [1] relates to SARS-COV-2 strain NIV 2020-770. The experiment in a line: microbe, parasite or virus in culture. In kind it is cell-based. The conditions noted are these: for IC50: Severe acute respiratory syndrome coronavirus 2, 72 h; for SI (selectivity index): against SARS-CoV-2.
For series [2], the system named is A549 (human lung alveolar cells) monolayer.
Series [3] is described as follows: Cell cytotoxicity determination (MTT) in Vero CCL-81 cells. The format is cell-based. To be noted: monkey. Here is the method:
Cell Cytotoxicity determination: 100 μL Vero CCL-81 cells were seeded on to 96 well plate at a density of 3×10^6 cells/mL. The plates were incubated for 24 hrs at 37° C. with 5% CO2. After overnight incubation the spent medium was discarded and 100 μL of different concentrations of each drugs prepared earlier from the stock was added to the respective wells in quadruplets. The plates were incubated for 72 hr at 37° C. in 5% CO2. After the incubation, the medium containing drug was discarded. The cell monolayer was washed by adding 100 μL of 1×PBS. 100 μL of plain MEM and 50 μl of MTT (2 mg/ml concentration) was added to each well. Followed by incubation for 4 hrs at 37° C. in 5% CO2. At the end of incubation, the cell supernatant was discarded and 200 μl of DMSO was added to each well to dissolve the formazan crystals. 25 μL of Sorensen's glycine buffer was added immediately to each well. The plates were incubated in dark for 30 min at room temperature. The OD was measured at 570 nm using ELISA plate reader. CC50 value was plotted using Prism Pad application.

A further series can be described thus: in vitro. To be noted: human.
A short description of series [4]: In vitro toxicity in WI-38 cells (MTS-PMS kit). The conditions noted are these: human, WI-38 human lung fibroblast cells, read-out: IC50 (cytotoxicity). The format is cell-based. From the text:
(§1) The toxicity of ((((((R)-1-(6-amino-9H-purin-9-yl) propan-2-yl) oxy) methyl) (phenoxy) phosphoryl)oxy)methyl pivalate fumarate and Metabolite of compound of formula 1 in different human lung cells viz, WI-38 (human lung fibroblast cells) and Calu-3 (human lung bronchial cells) by using the MTS-PMS kit investigated.
(§2) MTS-PMS kit details (CellTiter 96@ Aqueous kit)
This is a colorimetric method for determining the number of viable cell measures viable cells in proliferation, cytotoxicity or chemosensitivity assays. The assay is composed of solutions of a novel tetrazolium compound [3-(4,5-dimethylthiazol-2-yl)-5-(3-carboxymethoxyphenyl)-2-(4-sulfophenyl)-2H-tetrazolium, inner salt; MTS] and an electron coupling reagent (phenazine methosulfate) PMS. MTS is bioreduced by cells into a formazan product that is soluble in tissue culture medium. The absorbance of the formazan product at 490 nm can be measured directly from 96-well assay plates without additional processing. The conversion of MTS into the aqueous soluble formazan product is accomplished by dehydrogenase enzymes found in metabolically active cells. The quantity of formazan product as measured by the amount of 490 nm absorbance is directly proportional to the number of living cells in culture.
Respective cells were harvested from exponential phase cultures, […] on the cell line's growth rate. After a 24 h recovery period to allow the cells to resume exponential growth. TPF or Metabolite of compound of formula 1 was applied at 6-8 concentrations in duplicate and treatment continued for different time points. After completion of incubation 20 μL/well MTS-PMS reagent was added to each well (MTS-PMS was prepared as follows: CellTiter 96@AQueous Assay Reagents MTS Solution and the PMS Solution should be thawed before use. Remove 2.0 ml of MTS Solution. Add […] of PMS Solution to the 2.0 ml of MTS Solution immediately). Following an incubation period of up to four hours, the plate was read to 490 nm. For calculations, the mean values of duplicate data were used. Sigmoidal concentration-response curves were fitted to the data points (T/C values) obtained for each cell line using 4 parameter non-linear curve fit.
Cells were harvested from exponential phase cultures, […] on the cell line's growth rate. After a 24 h recovery period to allow the cells to resume exponential growth. TPF or Metabolite of compound of formula 1 was applied at 6-8 concentrations in duplicate and treatment continued for different time points. For Calu-3 cells the treatment was the treatment was for 72 hrs while WI-38 cells were treated for 48 and 96 hrs. After the treatment of cells, 20 μL/well MTS-PMS reagent was added. Following an incubation period of up to four hours, the plate was read to 490. […]

Series [5] is described as follows: In vitro toxicity in Calu-3 cells (MTS-PMS kit). The format is cell-based. The conditions noted are these: human, Calu-3 human lung bronchial cells, read-out: IC50 (cytotoxicity).
Source text: as §1, §2
This is a colorimetric method for determining the number of viable cell measures viable cells in proliferation, cytotoxicity or chemosensitivity assays. […] The absorbance of the formazan product at 490 nm can be measured directly from 96-well assay plates without additional processing. […] The quantity of formazan product as measured by the amount of 490 nm absorbance is directly proportional to the number of living cells in culture.
Respective cells were harvested from exponential phase cultures, […] on the cell line's growth rate. […] Following an incubation period of up to four hours, the plate was read to 490 nm. […]
Cells were harvested from exponential phase cultures, […] on the cell line's growth rate. […] Following an incubation period of up to four hours, the plate was read to 490. […]
A general note: Tetrazolium dyes change colour on reduction, which living cells bring about.

By IC50 is commonly meant the concentration that gives 50% inhibition. Usually CC50 stands for the concentration giving 50% cytotoxicity. The term Papp A→B denotes how fast a substance crosses the layer from the apical side. `C[C@H](Cn1cnc2c(N)ncnc21)OCP(=O)(O)Oc1ccccc1` [Compound of formula 2, tenphenol] came in with an IC50 in series [1] of roughly 12 µM. Besides, the “SI (selectivity index)” value in series [1] (window between cytotoxicity (CC50) and antiviral activity (IC50)) is greater than 8.33. The “SI (selectivity index)” value in series [1] (window between cytotoxicity (CC50) and antiviral activity (IC50), listed as compound of formula 2) is 8.33. Also, the permeability classification result in series [2] is listed as “moderately permeable”. The compound further showed a CC50 at 72 h in series [3] greater than 100 µM. The compound further showed an apical-to-basolateral permeability (Papp A→B) in the series “in vitro” of less than 20 ×10⁻⁶ cm/s. Also, in series [4], the 50% inhibitory concentration (IC50) at 48 h was greater than 100 µM and the half-inhibitory concentration (IC50) at 96 h is greater than 100 µM. In addition, in series [5], the IC50 at 72 h is greater than 100 µM.

Take `C[C@H](Cn1cnc2c(N)ncnc21)OC[P@@](=O)(OCOC(=O)C(C)(C)C)Oc1ccccc1` [((((((R)-1-(6-amino-9H-purin-9-yl)propan-2-yl)oxy)methyl) (phenoxy)phosphoryl)oxy)methyl pivalate fumarate]: in series [1], the half-maximal inhibitory concentration (IC50) was less than 1 µM. Also, the “SI (selectivity index)” value is recorded as greater than 100 in series [1] (window between cytotoxicity (CC50) and antiviral activity (IC50), fumarate); greater than 100 in series [1] (window between cytotoxicity (CC50) and antiviral activity (IC50); fumarate)). The permeability classification entry in series [2] is recorded as “highly permeable”. This compound had a P-app in series [2] (apical to basal) greater than 200 nm/s. Besides, the CC50 at 72 h in series [3] is greater than 100 µM. In addition, in series [4], the 50% inhibitory concentration (IC50) at 48 h is greater than 100 µM. Further, the concentration for half-maximal inhibition (IC50) at 96 h in series [4] is greater than 100 µM. In addition, the half-inhibitory concentration (IC50) at 72 h in series [5] is greater than 100 µM.
